Results reported in US8367715B2, “Pyrazole derivatives, preparation thereof, and therapeutic use thereof” (priority 2009, dated 2013).

Experiments:
B16 melanoma = experiment: In vivo antitumour activity against B16 melanoma grafted subcutaneously in mice, oral administration; conditions: for T − C in days 750 mg: tumours reaching 750 mg
Source text: This activity of the compounds of the invention on […] tumours was studied on the B16 melanoma. […]
A product is considered to be active if log10 cell kill is greater than or equal to 0.7. A product is considered to be very active if log10 cell kill is greater than 2.8.
The animals bearing the tumours are randomized before being subjected to the various treatments and controls. In the case of treatment of tumours of the present invention, the treatment was started at an early stage, 3 to 4 days after implantation. […]
The tumours are measured two or three times a week until the tumour reaches approximately 2 g or until the death of the animal if the latter occurs before the tumour reaches 2 g. The animals are autopsied at the time of sacrifice.
The antitumour activity is determined according to the various parameters recorded.

PDGFRβ = PDGFRβ (Homo sapiens, UniProt P09619); experiment: PDGFR kinase phosphorylation activity by radioactive labeling; format: biochemical; conditions: read-out: PDGFRβ, concentration that inhibits 50% of the kinase activity
Chain of PDGFRβ (P09619 33-1106, species assumed): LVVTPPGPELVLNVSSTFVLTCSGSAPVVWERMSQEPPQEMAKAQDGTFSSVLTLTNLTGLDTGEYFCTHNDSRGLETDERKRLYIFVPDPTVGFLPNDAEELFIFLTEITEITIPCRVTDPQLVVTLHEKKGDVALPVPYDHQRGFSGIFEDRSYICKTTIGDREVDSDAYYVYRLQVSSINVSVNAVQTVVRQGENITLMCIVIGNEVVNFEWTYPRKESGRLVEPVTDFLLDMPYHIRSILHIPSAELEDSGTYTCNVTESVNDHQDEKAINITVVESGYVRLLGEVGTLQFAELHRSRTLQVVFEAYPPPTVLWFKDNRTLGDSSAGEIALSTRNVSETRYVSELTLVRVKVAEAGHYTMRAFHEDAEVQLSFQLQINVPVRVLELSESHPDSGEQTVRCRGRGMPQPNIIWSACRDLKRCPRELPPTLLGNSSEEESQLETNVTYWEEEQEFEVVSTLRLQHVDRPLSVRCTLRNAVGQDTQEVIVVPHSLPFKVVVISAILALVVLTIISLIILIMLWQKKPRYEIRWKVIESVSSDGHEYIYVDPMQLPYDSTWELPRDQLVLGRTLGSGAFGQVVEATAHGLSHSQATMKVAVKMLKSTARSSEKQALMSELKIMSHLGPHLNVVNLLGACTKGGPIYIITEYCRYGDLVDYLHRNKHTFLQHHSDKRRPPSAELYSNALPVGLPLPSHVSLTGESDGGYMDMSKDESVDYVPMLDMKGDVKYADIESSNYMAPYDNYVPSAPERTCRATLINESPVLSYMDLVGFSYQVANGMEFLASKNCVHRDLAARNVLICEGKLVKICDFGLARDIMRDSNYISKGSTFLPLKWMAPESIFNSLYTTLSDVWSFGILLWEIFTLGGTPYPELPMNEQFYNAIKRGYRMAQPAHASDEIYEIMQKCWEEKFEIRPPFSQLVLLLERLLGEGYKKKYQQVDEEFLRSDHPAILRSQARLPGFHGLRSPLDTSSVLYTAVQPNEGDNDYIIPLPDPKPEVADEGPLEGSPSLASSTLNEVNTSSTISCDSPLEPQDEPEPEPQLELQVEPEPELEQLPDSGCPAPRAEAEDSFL
Method: 4. Screening of Molecules by Measuring, by Radioactive Labeling, the PDGFR Kinase Phosphorylation Activity in the Presence of PLCγ Substrate The test is carried out in a similar manner to that carried out with the FLT1 enzyme by using, instead of 13 nM of Flt1, 16 nM of PDGFR enzyme and mixed in the 96-well plates are 18 μl of GST-PDGFR enzyme at 4 mg/ml (for a purity of 80%) batch VLT802.

human KDR enzyme = molecular target: T1, human KDR enzyme (Homo sapiens, UniProt P35968); experiment: KDR kinase inhibition, phosphorylation of PLCγ substrate, scintillation Flash Plate; format: biochemical; conditions: read-out: KDR, concentration that inhibits 50% of the kinase activity
T1 construct: The cytoplasmic domain (residues 790 to 1356) of the human KDR enzyme; GST; made in house; host or cells: SF21 insect cells (baculovirus, pFastBac)
T1 sequence (P35968 790-1356): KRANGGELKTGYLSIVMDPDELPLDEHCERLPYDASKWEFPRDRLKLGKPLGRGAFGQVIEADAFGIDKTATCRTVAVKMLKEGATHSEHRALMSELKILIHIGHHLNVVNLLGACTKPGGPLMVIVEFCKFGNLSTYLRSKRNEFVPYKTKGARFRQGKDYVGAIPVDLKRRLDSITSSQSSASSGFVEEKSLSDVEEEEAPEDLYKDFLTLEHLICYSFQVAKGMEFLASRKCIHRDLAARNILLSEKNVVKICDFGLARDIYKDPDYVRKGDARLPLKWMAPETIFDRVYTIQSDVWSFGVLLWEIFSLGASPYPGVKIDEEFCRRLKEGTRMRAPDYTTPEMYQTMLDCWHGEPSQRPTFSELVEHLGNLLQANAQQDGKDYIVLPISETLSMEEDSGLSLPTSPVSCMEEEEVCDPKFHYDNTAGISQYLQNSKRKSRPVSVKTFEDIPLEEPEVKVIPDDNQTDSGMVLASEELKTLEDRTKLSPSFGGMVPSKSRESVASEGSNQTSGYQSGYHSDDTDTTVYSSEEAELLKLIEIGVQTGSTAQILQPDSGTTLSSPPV
Method: (§1) The inhibitory effect of the compounds is determined in an in vitro test of phosphorylation of substrate via a scintillation technique (96-well plate of basic Flash Plate type).
The cytoplasmic domain (residues 790 to 1356) of the human KDR enzyme was cloned in the form of a GST fusion in the pFastBac baculovirus expression vector. The protein was expressed in the SF21 cells, purified and activated by autophosphorylation. The substrate is composed of residues 658 to 850 of the PLCγ expressed and purified in the form of a GST fusion protein.
The KDR kinase activity is measured in the buffer 20 mM MOPS, 10 mM MgCl2, 10 mM MnCl2, 1 mM DTT, pH=7.4. The compounds are initially diluted in 100% DMSO, then prepared as a 10× solution in 30% DMSO/70% buffer. […] The radioactivity in each well is measured using a Trilux-βWallac radioactivity counter.
(§2) The background noise is determined by measuring the radioactivity in four different wells containing ATP (radiolabeled and cold) and the substrate, in the absence of enzyme and of compound. The control activity is measured in four different wells containing all the reagents, but in the absence of compound.
The inhibition of the KDR activity with the compound of the invention is expressed as a percentage of inhibition of the control activity determined in the absence of compound.

FLT1 = FLT1 (Homo sapiens, UniProt P17948); experiment: FLT1 kinase phosphorylation activity by radioactive labeling; format: biochemical; conditions: read-out: FLT1, concentration that inhibits 50% of the kinase activity
Chain of FLT1 (P17948 27-1338, species assumed): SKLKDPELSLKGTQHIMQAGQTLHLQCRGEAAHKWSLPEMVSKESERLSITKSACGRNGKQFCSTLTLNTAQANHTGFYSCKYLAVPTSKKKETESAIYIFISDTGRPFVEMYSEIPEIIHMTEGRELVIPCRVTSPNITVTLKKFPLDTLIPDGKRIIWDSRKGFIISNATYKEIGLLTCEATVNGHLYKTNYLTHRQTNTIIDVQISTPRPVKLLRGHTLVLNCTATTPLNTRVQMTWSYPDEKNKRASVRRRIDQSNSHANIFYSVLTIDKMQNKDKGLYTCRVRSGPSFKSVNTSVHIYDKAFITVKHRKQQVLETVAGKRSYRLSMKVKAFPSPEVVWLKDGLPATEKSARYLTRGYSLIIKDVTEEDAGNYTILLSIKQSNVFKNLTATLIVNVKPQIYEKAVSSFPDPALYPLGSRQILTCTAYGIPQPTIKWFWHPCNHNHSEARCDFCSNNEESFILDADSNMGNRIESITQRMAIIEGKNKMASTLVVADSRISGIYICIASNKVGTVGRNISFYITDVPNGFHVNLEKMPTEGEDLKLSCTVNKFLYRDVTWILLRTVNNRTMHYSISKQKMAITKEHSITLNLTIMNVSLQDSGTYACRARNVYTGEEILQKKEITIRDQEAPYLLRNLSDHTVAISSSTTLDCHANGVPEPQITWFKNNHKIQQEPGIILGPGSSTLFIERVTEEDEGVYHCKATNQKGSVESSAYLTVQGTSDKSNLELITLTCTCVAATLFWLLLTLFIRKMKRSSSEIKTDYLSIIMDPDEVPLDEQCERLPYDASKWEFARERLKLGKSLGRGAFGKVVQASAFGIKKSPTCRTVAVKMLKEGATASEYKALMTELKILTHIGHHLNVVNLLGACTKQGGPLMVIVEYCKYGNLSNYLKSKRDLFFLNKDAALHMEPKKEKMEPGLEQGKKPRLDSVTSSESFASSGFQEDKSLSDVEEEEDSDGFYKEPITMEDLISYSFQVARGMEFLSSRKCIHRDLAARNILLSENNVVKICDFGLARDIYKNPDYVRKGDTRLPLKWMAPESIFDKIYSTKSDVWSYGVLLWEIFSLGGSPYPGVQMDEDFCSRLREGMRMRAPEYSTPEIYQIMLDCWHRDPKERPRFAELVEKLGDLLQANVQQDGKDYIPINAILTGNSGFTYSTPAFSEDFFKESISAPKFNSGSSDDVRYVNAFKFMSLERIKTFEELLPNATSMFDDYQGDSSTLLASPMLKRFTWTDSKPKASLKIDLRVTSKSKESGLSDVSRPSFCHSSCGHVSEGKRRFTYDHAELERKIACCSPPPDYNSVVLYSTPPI
Method: 3. […] The inhibition of the FLT1 activity is calculated and expressed as percentage of inhibition relative to the control activity determined in the absence of compound. The percentage of inhibition corresponding to each concentration of molecules is calculated thus: % inhibition=(mean CPM of the control wells−CPM of each)

human Tie2 = molecular target: T2, human Tie2 (Homo sapiens, UniProt Q02763); experiment: Tie2 kinase inhibition, phosphorylation of PLCγ substrate, scintillation Flash Plate; format: biochemical; conditions: read-out: Tie2, concentration that inhibits 50% of the kinase activity
T2 construct: human Tie2 corresponding to the amino acids of the intracellular domain 774-1124; made in house; host or cells: baculovirus expression (pFastBacGT)
T2 sequence (Q02763 774-1124): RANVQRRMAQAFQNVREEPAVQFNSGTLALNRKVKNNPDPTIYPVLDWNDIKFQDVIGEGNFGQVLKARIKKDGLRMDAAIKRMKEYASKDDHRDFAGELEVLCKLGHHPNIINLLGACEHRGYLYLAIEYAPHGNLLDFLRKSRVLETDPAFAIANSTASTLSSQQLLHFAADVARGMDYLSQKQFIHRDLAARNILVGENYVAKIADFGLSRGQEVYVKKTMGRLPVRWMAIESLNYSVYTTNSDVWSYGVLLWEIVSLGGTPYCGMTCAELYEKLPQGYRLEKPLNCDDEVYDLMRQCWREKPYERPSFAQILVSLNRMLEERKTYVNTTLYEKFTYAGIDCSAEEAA
Method: as §1
The coding sequence of human Tie2 corresponding to the amino acids of the intracellular domain 774-1124 was introduced into a pFastBacGT baculovirus expression vector in the form of a GST fusion protein. GST-Tie2 was purified and activated by autophosphorylation. The substrate is composed of residues 658 to 850 of the PLCγ expressed and purified in the form of a GST fusion protein.
The kinase activity of Tie2 is measured in a MOPS 20 mM pH 7.4 buffer, containing 10 mM MgCl2, 10 mM MnCl2 and 1 mM DTT. The compounds are initially diluted in 100% DMSO, then prepared as a 10× solution in 30% DMSO/70% buffer. […] The radioactivity in each well is measured using a Trilux-βWallac radioactivity counter.
as §2
The inhibition of the Tie2 activity is calculated and expressed as a percentage of inhibition relative to the control activity determined in the absence of compound.

[1] = PO 62 mg/kg/adm, days 4-14 (2x/d)
[2] = PO 99 mg/kg/adm, days 4-14 (2x/d)
[3] = PO 160.0 mg/kg/adm, days 4-14 (2x/d)
[4] = PO 61.5 mg/kg/adm, day 3-10 (2x/d)
[5] = PO 99.2 mg/kg/adm, day 3-10 (2x/d)

Cl.NC(=O)c1n[nH]cc1NCc1cc(F)cc(NC(=O)Nc2ccc(C(F)(F)F)cc2Cl)c1 [Example 1, 4-{3-[3-(2-Chloro-4-trifluoromethylphenyl)ureido]-5-fluorobenzylamino}-1H-pyrazole-3-carboxamide hydrochloride]
Comments (B16 melanoma; PO 44 mg/kg/adm, day 4-14): Inactive
Death due to the product (day of death) (B16 melanoma; PO 44 mg/kg/adm, day 4-14, total 481 mg/kg, BCM-1948): 0/5
Average weight of the tumour in mg on day 13 (B16 melanoma; PO 44 mg/kg/adm, day 4-14): 686 mg
T/C in % day 13 (B16 melanoma; PO 44 mg/kg/adm, day 4-14): 51%
% BWC (day of low point) (B16 melanoma; PO 44 mg/kg/adm, day 4-14, low point day 15): +10.6 (15) %
Comments (B16 melanoma; [1]): Active
Total log cell kill (B16 melanoma; [1]): 2.3
Death due to the product (day of death) (B16 melanoma; PO 62 mg/kg/adm, days 4-14 (2x/d), total 1232 mg/kg, BCM-1948): 0/5
Average weight of the tumour in mg on day 13 (B16 melanoma; [1]): 128 mg
T/C in % day 13 (B16 melanoma; [1]): 10%
% BWC (day of low point) (B16 melanoma; PO 62 mg/kg/adm, days 4-14 (2x/d), low point day 5): +1.8 (5) %
T − C in days 750 mg (B16 melanoma; [1]): 6.2 days
Comments (B16 melanoma; [2]): Active
Total log cell kill (B16 melanoma; [2]): 2.3
Death due to the product (day of death) (B16 melanoma; PO 99 mg/kg/adm, days 4-14 (2x/d), total 1966 mg/kg, BCM-1948): 0/5
Average weight of the tumour in mg on day 13 (B16 melanoma; [2]): 72 mg
T/C in % day 13 (B16 melanoma; [2]): 5%
% BWC (day of low point) (B16 melanoma; PO 99 mg/kg/adm, days 4-14 (2x/d), low point day 5): −1.0 (5) %
T − C in days 750 mg (B16 melanoma; [2]): 6.2 days
Total log cell kill (B16 melanoma; [3]): 2.6
Death due to the product (day of death) (B16 melanoma; PO 160.0 mg/kg/adm, days 4-14 (2x/d), total 3178 mg/kg, BCM-1948): 0/5
Comments (B16 melanoma; PO 160.0 mg/kg/adm, days 4-14 (2x/d), HDT = highest dose tested): HDT active
Average weight of the tumour in mg on day 13 (B16 melanoma; [3]): 23 mg
T/C in % day 13 (B16 melanoma; [3]): 2%
% BWC (day of low point) (B16 melanoma; PO 160.0 mg/kg/adm, days 4-14 (2x/d), low point day 6): −2.3 (6) %
T − C in days 750 mg (B16 melanoma; [3]): 6.8 days
IC50 (PDGFRβ): 11 nM
IC50 (human KDR enzyme): 3 nM
IC50 (FLT1): 3 nM
IC50 (human Tie2): 36 nM

Cl.NC(=O)c1n[nH]cc1NCc1cc(F)cc(NC(=O)Nc2ccc(C(F)(F)F)cc2F)c1 [Example 2, 4-{3-[3-(2-Fluoro-4-trifluoromethylphenyl)ureido]-5-fluorobenzylamino}-1H-pyrazole-3-carboxamide hydrochloride]
Comments (B16 melanoma; PO 44.0 mg/kg/adm, day 3-10): Active
Total log cell kill (B16 melanoma; PO 44.0 mg/kg/adm, day 3-10): 1.0
Death due to the product (day of death) (B16 melanoma; PO 44.0 mg/kg/adm, day 3-10, total 352.0 mg/kg, BCM-1979): 0/6
Average weight of the tumour in mg on day 11 (B16 melanoma; PO 44.0 mg/kg/adm, day 3-10): 201 mg
T/C in % day 11 (B16 melanoma; PO 44.0 mg/kg/adm, day 3-10): 27%
% BWC (day of low point) (B16 melanoma; PO 44.0 mg/kg/adm, day 3-10, low point day 11): +6.6 (11) %
T − C in days 750 mg (B16 melanoma; PO 44.0 mg/kg/adm, day 3-10): 3.0 days
Comments (B16 melanoma; [4]): Active
Total log cell kill (B16 melanoma; [4]): 1.7
Death due to the product (day of death) (B16 melanoma; PO 61.5 mg/kg/adm, day 3-10 (2x/d), total 984 mg/kg, BCM-1979): 0/6
Average weight of the tumour in mg on day 11 (B16 melanoma; [4]): 46 mg
T/C in % day 11 (B16 melanoma; [4]): 6%
% BWC (day of low point) (B16 melanoma; PO 61.5 mg/kg/adm, day 3-10 (2x/d), low point day 11): +3.9 (11) %
T − C in days 750 mg (B16 melanoma; [4]): 5.0 days
Total log cell kill (B16 melanoma; [5]): 1.8
Death due to the product (day of death) (B16 melanoma; PO 99.2 mg/kg/adm, day 3-10 (2x/d), total 1587.2 mg/kg, BCM-1979): 0/6
Comments (B16 melanoma; PO 99.2 mg/kg/adm, day 3-10 (2x/d), HNTD = highest nontoxic dose): HNTD active
Average weight of the tumour in mg on day 11 (B16 melanoma; [5]): 0 mg
T/C in % day 11 (B16 melanoma; [5]): 0%
% BWC (day of low point) (B16 melanoma; PO 99.2 mg/kg/adm, day 3-10 (2x/d), low point day 11): −8.1 (11) %
T − C in days 750 mg (B16 melanoma; [5]): 5.4 days
Comments (B16 melanoma; PO 160.0 mg/kg/adm, day 3-10 (2x/d)): Toxic
Death due to the product (day of death) (B16 melanoma; PO 160.0 mg/kg/adm, day 3-10 (2x/d), total 2560.0 mg/kg, BCM-1979, days of death 10, 2d11, 13, 2d14): 6/6
% BWC (day of low point) (B16 melanoma; PO 160.0 mg/kg/adm, day 3-10 (2x/d), low point day 13): −26.5 (13) %
IC50 (PDGFRβ): 20 nM
IC50 (human KDR enzyme): 2 nM
IC50 (FLT1): 1.3 nM
IC50 (human Tie2): 39 nM
